Measured values reported in patent publication EP4803074A1, “PHARMACEUTICAL COMPOSITION OF PYRIMIDINE DERIVATIVE” (TYK Medicines, Inc., priority 2023, dated 2025).
Like-named read-outs stand apart in the source and are kept apart here.

Tests used:
Permeability = format: in vitro ADME; conditions: result in words
Description: (§1) Drugs can be absorbed at many different sites along the gastrointestinal tract (including the stomach, duodenum, jejunum, ileum, and colon) following oral administration. Due to the significant pH gradient between the stomach (pH 1 - 3.5) and the small intestine (pH 4 - 8), the pH varies at each absorption site. […] In such cases, where the solubility of a drug varies with pH-and specifically when solubility is highest at acidic pH levels-a problem arises: the drug may precipitate out of solution as it passes through the gastrointestinal tract, but the drug should remain in solution to be absorbed, such precipitation may affect the extent and rate of absorption.

[1] = Single-dose pharmacokinetic study, fasting vs high-fat meal; conditions: human, in vivo, po, 80 mg, healthy volunteers
[2] = Impurity B content of process samples on storage at room temperature (HPLC); format: physicochemical; conditions: 20 days (Laboratory placement)
Description: Impurity B (Impurity RRT1.5, i.e., relative retention time 1.5) is a degradation impurity identified in the stability studies of this formulation and is a specific impurity that requires close monitoring. […] Therefore, the study of Impurity B content is also a key point of the invention. The method for determining the content of Impurity B is as follows: [table] [table] • Heptafluorobutyric acid: Chromatographic grade Water: Ultrapure water Ammonia solution: Chromatographic grade or analytical grade • Acetonitrile: Chromatographic grade Methanol: Chromatographic grade • TY-9591 Reference Standard: In-house preparation or commercially purchased • 3. […]

pH-dependent solubility = format: physicochemical; conditions: result in words
Description: as §1

[3] = After high-fat meal, single oral dose of 80 mg of Tablet 22
[4] = Fasting, single oral dose of 80 mg of Tablet 22

permeability (Permeability): moderate permeability
AUC(0-inf) [1, 3]: 4350 ng·h/mL
Cmax [1, 3]: 69 ng/mL
Tmax [1, 3]: 5.95 h
half-life [1, 3]: 48.6 h
AUC(0-t) ([1]; After high-fat meal, single oral dose of 80 mg of Tablet 22, read-out: AUC0-72h): 2670 ng·h/mL
AUC(0-t) ([1]; After high-fat meal, single oral dose of 80 mg of Tablet 22, read-out: AUC0-t): 4300 ng·h/mL
Tmax ([1]; Fasting, single oral dose of 80 mg of Tablet 22 (40 mg*2 tablets)): 5.99 h
AUC(0-inf) [1, 4]: 3930 ng·h/mL
Cmax [1, 4]: 67.8 ng/mL
half-life [1, 4]: 51.2 h
AUC(0-t) ([1]; Fasting, single oral dose of 80 mg of Tablet 22, read-out: AUC0-72h): 2330 ng·h/mL
AUC(0-t) ([1]; Fasting, single oral dose of 80 mg of Tablet 22, read-out: AUC0-t): 3880 ng·h/mL
Impurity B/% [2]: 0.13%
solubility at pH 1 (hydrochloric acid) compared to pH 6.8 (sodium hydroxide-sodium dihydrogen phosphate buffer, 25 mM) (pH-dependent solubility): higher solubility
SMILES: [2H]C([2H])([2H])n1cc(-c2ccnc(Nc3cc(NC(=O)C=C)c(N(C)CCN(C)C)cc3OC)n2)c2ccccc21 [TY-9591, N-(2-((2-(dimethylamino)ethyl) (methyl)amine)-4-methoxy-5-((4-(1-deuteriatedmethyl-1H-indol-3-yl)pyrimidin-2-yl)amine)phenyl)acrylamide]
